Measurements as given in patent publication US20130252935A1, “Monobactams” (PFIZER INC., priority 2010, published 2013).
≈ marks a conversion by molar mass, not a printed value.

Legend:
Type in all cases: cell-based
[1] = test system: Pseudomonas aeruginosa UC-12120; test: minimum inhibitory concentration (MIC) testing according to CLSI guidelines, Pseudomonas aeruginosa; conditions: UC-12120, wild-type, labeled as 1091-05, overnight incubation, lower of duplicate values; for MIC: Pseudomonas aeruginosa, UC12120, read-out: AB-MBT: Pseudomonas aeruginosa 1091-05: MIC (MstRcn)
Outline: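 Broth dilution MIC per CLSI guidelines against wild-type P. aeruginosa UC-12120 (1091-05), using 2-fold drug dilutions and overnight incubation with visual reading of lowest growth-inhibiting concentration. Tested in duplicate; lower value reported when within 2-fold, with control organisms and reference compounds for quality control.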

[2] = test system: Klebsiella pneumoniae 1000-02; test: minimum inhibitory concentration (MIC) testing according to CLSI guidelines, Klebsiella pneumoniae; conditions: ciprofloxacin-resistant, ESBL-expressing clinical isolate 1000-02, overnight incubation, lower of duplicate values; for MIC: Klebsiella pneumoniae, read-out: AB-MBT: Klebsiella pneumoniae 1000-02: MIC (MstRcnt)
Outline: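 MIC by CLSI broth dilution with 2-fold concentration steps and overnight incubation; lowest concentration visibly inhibiting growth versus drug-free control. Ciprofloxacin-resistant, ESBL-expressing clinical isolate 1000-02. Run in duplicate, lower value reported when within 2-fold, with QC organisms and reference compounds per run.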

[3] = test system: Acinetobacter baumannii/haemolyticus AB-3167; test: minimum inhibitory concentration (MIC) testing according to CLSI guidelines, Acinetobacter; conditions: multidrug-resistant clinical isolate AB-3167, overnight incubation, lower of duplicate values; for MIC: Acinetobacter baumannii, read-out: AB-MBT: Acinetobacter baumanii AB-3167: MIC (MstRcnt)
Outline: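 Broth dilution MIC per CLSI M7-A8/M100-S20 against multidrug-resistant clinical isolate AB-3167, using 2-fold drug dilutions and overnight incubation; MIC is the lowest concentration without visible growth. Duplicates within 2-fold reported as the lower value, with control strains and reference compounds in range.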

SMILES | MIC [1] | MIC [2] | MIC [3] | AB-MBT: Pseudomonas aeruginosa 1091-05: MIC (MstRcn) [1] | AB-MBT: Klebsiella pneumoniae 1000-02: MIC (MstRcnt) [2] | AB-MBT: Acinetobacter baumanii AB-3167: MIC (MstRcnt) [3]
CC(C)(O/N=C(\C(=O)N[C@@H]1C(=O)N(S(=O)(=O)O)[C@@H]1Cn1cc(-c2cc(=O)c(O)c[nH]2)nn1)c1csc(N)n1)C(=O)O [Example 2, 2-({[(1Z)-1-(2-amino-1,3-thiazol-4-yl)-2-{[(2R,3S)-2-{[4-(5-hydroxy-4-oxo-1,4-dihydropyridin-2-yl)-1H-1,2,3-triazol-1-yl]methyl}-4-oxo-1-sulfoazetidin-3-yl]amino}-2-oxoethylidene]amino}oxy)-2-methylpropanoic acid] | 2 mg/L (≈ 3.27 µM) | 8 mg/L (≈ 13.1 µM) | 8 mg/L (≈ 13.1 µM) |  |  | 
CC(C)(O/N=C(\C(=O)N[C@@H]1C(=O)N(S(=O)(=O)O)[C@@H]1CNc1cc(C(=O)NCc2cc(=O)c(O)cn2O)ccn1)c1csc(N)n1)C(=O)O [Example 50, 2-({[(1Z)-1-(2-amino-1,3-thiazol-4-yl)-2-{[(2R,3S)-2-{[(4-{[(1,5-dihydroxy-4-oxo-1,4-dihydropyridin-2-yl)methyl]carbamoyl}pyridin-2-yl)amino]methyl}-4-oxo-1-sulfoazetidin-3-yl]amino}-2-oxoethylidene]amino}oxy)-2-methylpropanoic acid] | 0.125 mg/L (≈ 0.176 µM) | 0.5 mg/L (≈ 0.705 µM) | 0.5 mg/L (≈ 0.705 µM) |  |  | 
CC(C)(O/N=C(\C(=O)N[C@@H]1C(=O)N(S(=O)(=O)O)[C@@H]1CNC(=O)CNC(=O)c1cc(=O)c(O)cn1O)c1csc(N)n1)C(=O)O [Example 36, 2-({[(1Z)-1-(2-amino-1,3-thiazol-4-yl)-2-({(2R,3S)-2-[({N-[(1,5-dihydroxy-4-oxo-1,4-dihydropyridin-2-yl)carbonyl]glycyl}amino)methyl]-4-oxo-1-sulfoazetidin-3-yl}amino)-2-oxoethylidene]amino}oxy)-2-methylpropanoic acid] | 0.125 mg/L (≈ 0.189 µM) | 1 mg/L (≈ 1.51 µM) | 0.25 mg/L (≈ 0.378 µM) |  |  | 
CC(C)(O/N=C(\C(=O)N[C@@H]1C(=O)N(S(=O)(=O)O)[C@@H]1CNC(=O)C1CN(C(=O)c2cc(=O)c(O)c[nH]2)C1)c1csc(N)n1)C(=O)O [Example 8, 2-({[(1Z)-1-(2-amino-1,3-thiazol-4-yl)-2-{[(2R,3S)-2-{[({1-[(5-hydroxy-4-oxo-1,4-dihydropyridin-2-yl)carbonyl]azetidin-3-yl}carbonyl)amino]methyl}-4-oxo-1-sulfoazetidin-3-yl]amino}-2-oxoethylidene]amino}oxy)-2-methylpropanoic acid] | 1 mg/L (≈ 1.49 µM) | 4 mg/L (≈ 5.96 µM) | 1 mg/L (≈ 1.49 µM) |  |  | 
CC(C)(O/N=C(\C(=O)N[C@@H]1C(=O)N(S(=O)(=O)O)[C@@H]1CNC(=O)CCC(=O)NCc1cc(=O)c(O)cn1O)c1csc(N)n1)C(=O)O [Example 42, 2-({[(1Z)-1-(2-amino-1,3-thiazol-4-yl)-2-{[(2R,3S)-2-{[(4-{[(1,5-dihydroxy-4-oxo-1,4-dihydropyridin-2-yl)methyl]amino}-4-oxobutanoyl)amino]methyl}-4-oxo-1-sulfoazetidin-3-yl]amino}-2-oxoethylidene]amino}oxy)-2-methylpropanoic acid] | 0.125 mg/L (≈ 0.182 µM) | 0.5 mg/L (≈ 0.726 µM) | 0.125 mg/L (≈ 0.182 µM) |  |  | 
CC(C)(O/N=C(\C(=O)N[C@@H]1C(=O)N(S(=O)(=O)O)[C@@H]1CNC(=O)c1cc(-c2cc(=O)c(O)c[nH]2)no1)c1csc(N)n1)C(=O)O [Example 14, 2-({[(1Z)-1-(2-amino-1,3-thiazol-4-yl)-2-({(2R,3S)-2-[({[3-(5-hydroxy-4-oxo-1,4-dihydropyridin-2-yl)isoxazol-5-yl]carbonyl}amino)methyl]-4-oxo-1-sulfoazetidin-3-yl}amino)-2-oxoethylidene]amino}oxy)-2-methylpropanoic acid] | 1 mg/L (≈ 1.53 µM) | 0.5 mg/L (≈ 0.764 µM) | 0.5 mg/L (≈ 0.764 µM) |  |  | 
CC(C)(O/N=C(\C(=O)N[C@@H]1C(=O)N(S(=O)(=O)O)[C@@H]1CNC(=O)c1cc(=O)c(O)c[nH]1)c1csc(N)n1)C(=O)O [Example 10, 2-({[(1Z)-1-(2-amino-1,3-thiazol-4-yl)-2-{[(2R,3S)-2-({[(5-hydroxy-4-oxo-1,4-dihydropyridin-2-yl)carbonyl]amino}methyl)-4-oxo-1-sulfoazetidin-3-yl]amino}-2-oxoethylidene]amino}oxy)-2-methylpropanoic acid] | 0.125 mg/L (≈ 0.213 µM) | 0.5 mg/L (≈ 0.851 µM) | 0.25 mg/L (≈ 0.425 µM) |  |  | 
CC(C)(O/N=C(\C(=O)N[C@@H]1C(=O)N(S(=O)(=O)O)[C@@H]1COC(=O)c1cc(-c2cc(=O)c(O)c[nH]2)no1)c1csc(N)n1)C(=O)O [Example 12, 2-({[(1Z)-1-(2-amino-1,3-thiazol-4-yl)-2-({(2S,3S)-2-[({[3-(5-hydroxy-4-oxo-1,4-dihydropyridin-2-yl)isoxazol-5-yl]carbonyl}oxy)methyl]-4-oxo-1-sulfoazetidin-3-yl}amino)-2-oxoethylidene]amino}oxy)-2-methylpropanoic acid] | 4 mg/L (≈ 6.1 µM) | 0.25 mg/L (≈ 0.381 µM) | 16 mg/L (≈ 24.4 µM) |  |  | 
Nc1nc(/C(=N/OC2(C(=O)O)CCC2)C(=O)N[C@@H]2C(=O)N(S(=O)(=O)O)[C@@H]2CNC(=O)NCc2cc(=O)c(O)cn2O)cs1 [Example 30, 1-({[(1Z)-1-(2-amino-1,3-thiazol-4-yl)-2-({(2R,3S)-2-[({[(1,5-dihydroxy-4-oxo-1,4-dihydropyridin-2-yl)methyl]carbamoyl}amino)methyl]-4-oxo-1-sulfoazetidin-3-yl}amino)-2-oxoethylidene]amino}oxy)cyclobutanecarboxylic acid] | 0.125 mg/L (≈ 0.194 µM) | 0.125 mg/L (≈ 0.194 µM) | 0.25 mg/L (≈ 0.388 µM) |  |  | 
CC(C)(O/N=C(\C(=O)N[C@@H]1C(=O)N(S(=O)(=O)O)[C@@H]1CNC(=O)c1ccc(NC(=O)c2cc(=O)c(O)cn2O)cc1)c1csc(N)n1)C(=O)O [Example 52, 2-({[(1Z)-1-(2-amino-1,3-thiazol-4-yl)-2-{[(2R,3S)-2-{[(4-{[(1,5-dihydroxy-4-oxo-1,4-dihydropyridin-2-yl)carbonyl]amino}benzoyl)amino]methyl}-4-oxo-1-sulfoazetidin-3-yl]amino}-2-oxoethylidene]amino}oxy)-2-methylpropanoic acid] | 0.5 mg/L (≈ 0.692 µM) | 1 mg/L (≈ 1.38 µM) | 0.5 mg/L (≈ 0.692 µM) |  |  | 
Nc1nc(/C(=N/OC2(C(=O)O)CCOCC2)C(=O)N[C@@H]2C(=O)N(S(=O)(=O)O)[C@@H]2CNC(=O)NCc2cc(=O)c(O)cn2O)cs1 [Example 27, 4-({[(1Z)-1-(2-amino-1,3-thiazol-4-yl)-2-({(2R,3S)-2-[({[(1,5-dihydroxy-4-oxo-1,4-dihydropyridin-2-yl)methyl]carbamoyl}amino)methyl]-4-oxo-1-sulfoazetidin-3-yl}amino)-2-oxoethylidene]amino}oxy)tetrahydro-2H-pyran-4-carboxylic acid] | 1 mg/L (≈ 1.48 µM) | 1 mg/L (≈ 1.48 µM) | 2 mg/L (≈ 2.96 µM) |  |  | 
N#C/N=C(\NCc1cc(=O)c(O)cn1O)NC[C@@H]1[C@H](NC(=O)/C(=N\OC2(C(=O)O)CCC2)c2csc(N)n2)C(=O)N1S(=O)(=O)O [Example 63, 1-({[(1Z)-1-(2-amino-1,3-thiazol-4-yl)-2-{[(2R,3S)-2-({[(Z)-(cyanoimino){[(1,5-dihydroxy-4-oxo-1,4-dihydropyridin-2-yl)methyl]amino}methyl]amino}methyl)-4-oxo-1-sulfoazetidin-3-yl]amino}-2-oxoethylidene]amino}oxy)cyclobutanecarboxylic acid] | 0.25 mg/L (≈ 0.374 µM) | 1 mg/L (≈ 1.5 µM) | 0.5 mg/L (≈ 0.748 µM) |  |  | 
Nc1nc(/C(=N/OC2(C(=O)O)CCC2)C(=O)N[C@@H]2C(=O)N(S(=O)(=O)O)[C@@H]2CNC(=O)c2cccc(S(=O)(=O)NCc3cc(=O)c(O)cn3O)c2)cs1 [Example 59] |  |  |  | 0.250 mg/L | 0.250 mg/L | 0.250 mg/L
CC(C)(O/N=C(\C(=O)N[C@@H]1C(=O)N(S(=O)(=O)O)[C@@H]1CNC(=O)NCc1cc(-c2cc(=O)c(O)cn2O)no1)c1csc(N)n1)C(=O)O [Example 47, 2-({[(1Z)-1-(2-amino-1,3-thiazol-4-yl)-2-{[(2R,3S)-2-{[({[3-(1,5-dihydroxy-4-oxo-1,4-dihydropyridin-2-yl)isoxazol-5-yl]methyl}carbamoyl)amino]methyl}-4-oxo-1-sulfoazetidin-3-yl]amino}-2-oxoethylidene]amino}oxy)-2-methylpropanoic acid] | 0.125 mg/L (≈ 0.179 µM) | 0.25 mg/L (≈ 0.357 µM) | 0.25 mg/L (≈ 0.357 µM) |  |  | 
CC(C)(O/N=C(\C(=O)N[C@@H]1C(=O)N(S(=O)(=O)O)[C@@H]1CNC(=O)CNC(=O)NCc1cc(=O)c(O)cn1O)c1csc(N)n1)C(=O)O [Example 53, 2-({[(1Z)-1-(2-amino-1,3-thiazol-4-yl)-2-{[(2R,3S)-2-{[(N-{[(1,5-dihydroxy-4-oxo-1,4-dihydropyridin-2-yl)methyl]carbamoyl}glycyl)amino]methyl}-4-oxo-1-sulfoazetidin-3-yl]amino}-2-oxoethylidene]amino}oxy)-2-methylpropanoic acid] | 0.25 mg/L (≈ 0.363 µM) | 1 mg/L (≈ 1.45 µM) | 0.25 mg/L (≈ 0.363 µM) |  |  | 
